In data set [1] the test system is Mouse colon tumor CT26 cells. Put plainly: Mouse colon tumor (CT26) model, anti-tumor efficacy. Format: in vivo. As for the experimental part: Female BALB/C mice from ENVIGO (Frederick, Md.) were received in house at age 6-8 weeks and acclimated for 3-7 days prior to implantation. Mouse colon tumor CT26 cells were implanted subcutaneously at a concentration of 1×10^7 cells/mL, 0.1 mL per injection, using a 1 mL tuberculin syringe with 25 g needle.
On Day 10 post implant, mice were randomized and sorted into groups with 10 mice per group. […] Antibody B was administered i.p. every 4 days for a total of 3 doses.
(§1) Tumors and group body weights were weighed and measured twice weekly until tumors reached a volume of approximately 1500 mm^3. Animals were euthanized if the tumor reached a volume greater than approximately 1500 mm^3 or appeared ulcerated. Mean, median and/or survival plots as well as number of tumor-free mice were calculated to determine efficacy.

Data set [2] concerns Mouse colon tumor MC38 cells. The data set can be described thus: Mouse colon tumor (MC38) model, anti-tumor efficacy. Format: in vivo. How it is done: Female C57BL/6 mice from Charles River Laboratories (Raleigh, N.C.) were received in house at age 6-8 weeks and acclimated for 3-7 days prior to implant. Mouse colon tumor MC38 cells were implanted subcutaneously at a concentration of 1×10^7 cells/mL, 0.1 mL per injection, using a 1 mL tuberculin syringe with 25 g needle.
On Day 6 post implant, mice were randomized and sorted into groups with 10 mice per group. […] Antibody B was administered i.p. every 4 days for a total of 3 doses.
as §1

The target in data set [3] is T1, human CCR5 (Homo sapiens, UniProt P51681). Put plainly: Human CCR5-mediated calcium flux in HT1080/CCR5 cells. As to conditions: human pharmacology, MIP-1beta 50 nM, read-out: CCR5 Potency, ligand-induced calcium flux in cells. Format: cell-based. As for the experimental part: (§2) All samples were tested in duplicate.
T1 sequence (P51681 whole entry): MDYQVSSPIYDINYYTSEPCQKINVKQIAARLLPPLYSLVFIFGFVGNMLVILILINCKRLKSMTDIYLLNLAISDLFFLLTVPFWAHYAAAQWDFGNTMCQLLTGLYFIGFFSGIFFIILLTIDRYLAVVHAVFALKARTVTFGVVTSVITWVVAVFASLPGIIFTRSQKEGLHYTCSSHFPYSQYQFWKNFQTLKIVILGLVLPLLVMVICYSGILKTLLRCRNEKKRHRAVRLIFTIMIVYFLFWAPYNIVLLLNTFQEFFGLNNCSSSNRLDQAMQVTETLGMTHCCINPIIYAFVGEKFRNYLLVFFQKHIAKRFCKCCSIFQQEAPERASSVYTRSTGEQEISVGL
Another data set concerns the target T2, mouse CCR2 (Mus musculus, UniProt P51683).
T2 construct: WEHI-274.1 mouse monocyte line; endogenous in cells; host or cells: WEHI-274.1 mouse monocyte line
The data set can be described thus: Mouse CCR2 potency (assay not specified).

In data set [4] the target is T3, human CCR2 (Homo sapiens, UniProt P41597). The data set can be described thus: Human CCR2-mediated calcium flux in THP-1 cells. Format: cell-based. Further details: established with the human monocytic cell line, THP-1; endogenous in cells; host or cells: THP-1 human monocytic cell line. To be noted: human pharmacology, human MCP-1 10 nM, read-out: CCR2 Potency, ligand-induced calcium flux in cells. How it is done:
as §2
(Calcium assays in cells follow changes in intracellular calcium, usually with a dye or a luminescent sensor.)

For data set [5], the target named is T1, human CCR5. Put plainly: Human CCR5-mediated CD11b integrin upregulation in whole blood. To be noted: human pharmacology, MIP-1beta 50 nM, read-out: CCR5 Potency, ligand-induced integrin upregulation in whole blood. Details: established with human whole blood; from tissue; host or cells: human whole blood. Format: cell-based.
The target in data set [6] is T1, human CCR5. Put plainly: Inhibition of 125I-MIP-1beta binding to human T cells (human CCR5). Details: hPBMCs and human T cells were isolated from human leukopak; endogenous in cells; host or cells: human T cells isolated from human leukopak. To be noted: human pharmacology, 125I-human MIP-1beta, read-out: CCR5 Potency, binding on CCR5-expressing cells (displacing 125I-labelled ligand). As for the experimental part: All conditions were tested in duplicate.

For data set [7], the target named is T3, human CCR2. The data set can be described thus: Human CCR2-mediated CD11b integrin upregulation in whole blood. Format: cell-based. To be noted: human pharmacology, MCP-1 10 nM, read-out: CCR2 Potency, ligand-induced integrin upregulation in whole blood. As for the experimental part:
A CCR2-dependent CD11b upregulation assay was established with human whole blood. […] The reactions were incubated for 30 minutes at 37° C. […] The samples were then incubated for 30 minutes on ice in the dark. […] Data acquisition and analysis were performed using CellQuestPro™ software. A sequential gating strategy was used to analyze the CD14high CD11b+ monocyte population. […] A similar procedure for mouse CCR5 was adopted except that MIP-1beta (50 nM) was used as the ligand.

The nature of a further data set: Mouse PK of Compound C. Format: in vivo.
The nature of data set [8]: Tolerability in CT26 tumor-bearing mice. Format: in vivo. To be noted: CT26 model; alone or in combination. How it is done:
as §1

Data set [9] has as its target T4, mouse PD-1 (Mus musculus, UniProt Q02242).
T4 construct: expressed in transfected cells; host or cells: CHO cells
T4 sequence (Q02242 25-288): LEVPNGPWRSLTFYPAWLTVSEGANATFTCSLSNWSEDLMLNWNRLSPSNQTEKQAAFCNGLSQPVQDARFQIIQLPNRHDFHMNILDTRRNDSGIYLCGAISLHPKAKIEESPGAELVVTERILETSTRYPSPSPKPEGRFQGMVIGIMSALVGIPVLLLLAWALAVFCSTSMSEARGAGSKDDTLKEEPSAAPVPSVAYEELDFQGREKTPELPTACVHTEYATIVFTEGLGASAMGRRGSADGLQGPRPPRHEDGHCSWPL
The data set can be described thus: Blocking binding of PD-L2 to mouse PD-1 on CHO transfectants. To be noted: mouse potency; mouse PD-L2, CHO mouse PD-1; read-out: Blocking PD-L2 binding to PD1-expressing cells for IC50. As for the experimental part:
CHO transfectants stably expressing human and mouse PD-1 were pre-incubated with titrated mAbs against human and mouse PD-1, respectively, followed by addition of PD-L2-Fc at 15 μg/ml. Cell-bound PD-L2-Fc was detected with a FITC-conjugated secondary to human IgG Fc.

Data set [10] is described as follows: Tolerability in MC38 tumor-bearing mice. To be noted: MC38 model; alone or in combination. Format: in vivo. As for the experimental part:
as §1

The target of data set [11] is T4, mouse PD-1. Put plainly: Blocking binding of PD-L1 to mouse PD-1 on CHO transfectants. To be noted: mouse potency; mouse PD-L1, CHO mouse PD-1; read-out: Blocking PD-L1 binding to PD1-expressing cells for IC50. As for the experimental part:
CHO transfectants stably expressing human and mouse PD-1 were pre-incubated with titrated mAbs against human and mouse PD-1, respectively, followed by addition of PD-L1-Fc at 2 μg/mL. Cell-bound PD-L1-Fc was detected with a FITC-conjugated secondary to human IgG Fcγ.

Data set [12] concerns the target T4, mouse PD-1. Put plainly: Direct binding of anti-PD-1 mAb to mouse PD-1 on CHO transfectants. To be noted: mouse potency; mouse PD1-expressing CHO cells. As for the experimental part:
Assays for Direct Binding of Anti-PD-1 Monoclonal Antibody (mAb) to PD1 Stably Expressed on CHO Transfectants
mAbs against human and mouse PD-1 were serially diluted and incubated with CHO cell transfectants stably expressing human and mouse PD-1, respectively, followed by detection with a FITC-conjugated secondary to mouse IgG Fcγ.

T3 sequence (P41597 whole entry): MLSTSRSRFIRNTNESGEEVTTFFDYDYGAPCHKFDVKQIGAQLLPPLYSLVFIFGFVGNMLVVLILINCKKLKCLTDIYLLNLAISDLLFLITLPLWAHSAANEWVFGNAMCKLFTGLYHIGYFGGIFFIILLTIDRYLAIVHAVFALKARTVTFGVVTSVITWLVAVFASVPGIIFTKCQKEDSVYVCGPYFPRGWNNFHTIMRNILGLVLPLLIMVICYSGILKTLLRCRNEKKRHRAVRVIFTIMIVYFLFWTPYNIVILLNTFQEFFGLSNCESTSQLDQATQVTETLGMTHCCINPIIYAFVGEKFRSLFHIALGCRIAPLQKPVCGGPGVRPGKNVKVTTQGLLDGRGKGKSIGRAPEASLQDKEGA
T2 sequence (P51683 whole entry): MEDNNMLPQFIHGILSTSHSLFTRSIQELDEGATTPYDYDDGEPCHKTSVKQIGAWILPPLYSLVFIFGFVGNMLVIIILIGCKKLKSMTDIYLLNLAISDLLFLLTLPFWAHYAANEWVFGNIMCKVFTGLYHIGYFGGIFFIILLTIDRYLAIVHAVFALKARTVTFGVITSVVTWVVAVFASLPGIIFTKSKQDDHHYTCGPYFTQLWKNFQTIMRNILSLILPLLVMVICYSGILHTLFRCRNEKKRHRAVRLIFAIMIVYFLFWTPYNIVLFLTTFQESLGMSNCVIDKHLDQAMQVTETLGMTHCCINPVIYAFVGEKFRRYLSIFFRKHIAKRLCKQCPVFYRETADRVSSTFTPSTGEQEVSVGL

Consider `CCC[C@@H]1C[C@H](N(C)C(C)C)CC[C@@H]1N1CC[C@H](Nc2ncnc3ccc(C(F)(F)F)cc23)C1=O` [Compound A, (S)-1-((1S,2R,4R)-4-(isopropyl(methyl)amino)-2-propylcyclohexyl)-3-((6-(trifluoromethyl)quinazolin-4-yl)amino)pyrrolidin-2-one], for which the Tumor-free mice is reported as 0/10 in data set [1] (Compound A 12.5 mg/kg PO BID 28 days alone); 0/10 in data set [1] (Compound A 25 mg/kg PO BID 28 days alone); 0/10 in data set [1] (Compound A 50 mg/kg PO BID 28 days alone); 0/10 in data set [2] (MC38 Study #1, Compound A 25 mg/kg PO BID 28 days alone); 0/10 in data set [2] (MC38 Study #1, Compound A 50 mg/kg PO BID 28 days alone); 0/10 in data set [2] (MC38 Study #1, Compound A 100 mg/kg PO BID 28 days alone). The Tumor-free mice in data set [2] (MC38 Study #2, Compound A 6.25 mg/kg PO BID 28 days alone) was 0/10; in [2] (MC38 Study #2, Compound A 50 mg/kg PO BID 28 days alone), 0/10.
In the case of `CC(=O)N[C@@H]1C[C@H](NC(C)(C)C)CC[C@@H]1N1CC[C@H](Nc2ncnc3cc(C(C)(C)C)nn23)C1=O` [Compound C, N-((1R,2S,5R)-5-(tert-butylamino)-2-((S)-3-(7-tert-butylpyrazolo[1,5-a][1,3,5]triazin-4-ylamino)-2-oxopyrrolidin-1-yl)cyclohexyl)acetamide], the IC50 on human CCR5 [3] came out at 2 nM; at human CCR2 [4] it was 2.9 nM; on human CCR5 [5], 5.7 nM; on human CCR5 [6], 3.6 nM; on human CCR2 [7] it was 4.8 nM. The “mouse CCR2 potency” value on mouse CCR2 is “poor”. Moreover, in “Mouse PK of Compound C”, the “mouse PK” value is on record as “poor”.

B1: Antibody B: anti-mouse PD-1 antibody generated by murinizing the Fc tail of 4H2; contains a mouse IgG1 D265A; SEQ ID NO: 1 and 2 (protein)
light: DTVLTQSPALAVSLGQRVTISCKASETVSSSMYSYIHWYQQKPGQQPKLLIYRASNLESGVPARFSGSGSGTDFTLTIDPVEADDVATYFCQQSWNPWTFGGGTKLELKRADAAPTVSIFPPSSEQLTSGGASVVCFLNNFYPKDINVKWKIDGSERQNGVLNSWTDQDSKDSTYSMSSTLTLTKDEYERHNSYTCEATHKTSTSPIVKSFNRNEC
heavy: QVQLKESGPGLVQPSQTLSLTCTVSGFSLTSYNVHWVRQPPGKGLEWMGGMRYNEDTSYNSALKSRLSISRDTSKNQVFLKMNSLQTDDTGTYYCTRDAVYGGYGGWFAYWGQGTLVTVSSAKTTPPSVYPLAPGSAAQTNSMVTLGCLVKGYFPEPVTVTWNSGSLSSGVHTFPAVLQSDLYTLSSSVTVPSSTWPSETVTCNVAHPASSTKVDKKIVPRDCGCKPCICTVPEVSSVFIFPPKPKDVLTITLTPKVTCVVVDISKDDPEVQFSWFVDDVEVHTAQTQPREEQFNSTFRSVSELPIMHQDWLNGKEFKCRVNSAAFPAPIEKTISKTKGRPKAPQVYTIPPPKEQMAKDKVSLTCMITDFFPEDITVEWQWNGQPAENYKNTQPIMDTDGSYFVYSKLNVQKSNWEAGNTFTCSVLHEGLHNHHTEKSLSHSPGK
modifications: Antibody B Light chain variable; Antibody B heavy chain variable
The EC50 is the concentration needed to bring the measured effect to its halfway point. A high value points to a less potent agent. B1: the tolerability entry in data set [8] and in data set [10] was “well tolerated” in each case. Besides, the Tumor-free mice in data set [1] (Antibody B 10 mg/kg, 3 doses, alone) is 0/10; in data set [2] (MC38 Study #1, Antibody B 10 mg/kg i.p., 3 doses, alone), 1/10; in [2] (MC38 Study #2, Antibody B 10 mg/kg, 3 doses, alone), 0/10. Moreover, the IC50 is 4.9 nM with mouse PD-1 [9] and 3.6 nM with mouse PD-1 [11]. The molecule further came in with an EC50 with mouse PD-1 [12] of 2.9 nM.

For the origin of these results see patent publication US20220160718A1, “COMPOSITIONS AND METHODS OF TREATING CANCER” (Bristol-Myers Squibb Company, priority 2018, published 2022).
